Tests used:
[1] = target: T1, human B1R receptor (Homo sapiens, UniProt P46663); test: Functional study on the bradykinin receptor 1 (B1R), FLIPR Ca2+ assay, hB1R cells; type: cell-based; conditions: CHO-K1, test substance 10 μM, agonist Lys-Des-Arg9-bradykinin 0.5 nM, % inhibition compared with the maximum achievable inhibition, read-out: B1R Antagonism, human [10 μM] % Inhibition
T1 construct: host or cells: CHO K1 cells (Chinese hamster ovary), stably transfected
T1 sequence (P46663 1-353): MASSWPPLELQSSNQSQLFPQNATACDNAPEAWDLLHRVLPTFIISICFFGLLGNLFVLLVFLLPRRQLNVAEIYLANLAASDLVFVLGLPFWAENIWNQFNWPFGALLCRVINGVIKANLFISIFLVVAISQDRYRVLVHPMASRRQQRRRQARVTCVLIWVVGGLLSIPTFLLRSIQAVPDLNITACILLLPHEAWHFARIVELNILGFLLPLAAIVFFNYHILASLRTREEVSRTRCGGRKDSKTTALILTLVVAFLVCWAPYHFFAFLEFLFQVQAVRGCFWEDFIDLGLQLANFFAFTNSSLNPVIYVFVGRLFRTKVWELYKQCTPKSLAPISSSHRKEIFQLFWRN
In short: (§1)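 CHO K1 cells stably expressing human or rat B1R were loaded with Fluo-4 and read on a FLIPR (ex 488/em 540 nm, peak fluorescence). Test compounds at 10 μM were added first, then after 10 min agonist: Lys-Des-Arg9-bradykinin 0.5 nM for hB1R, Des-Arg9-bradykinin 100 nM for rB1R; % inhibition versus maximum inhibition.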

[2] = target: T2, B1R receptor of the rat (Rattus norvegicus, UniProt P97583); test: Functional study on the bradykinin receptor 1 (B1R), FLIPR Ca2+ assay, rB1R cells; type: cell-based; conditions: CHO-K1, test substance 10 μM, agonist Des-Arg9-bradykinin 100 nM, % inhibition compared with the maximum achievable inhibition, read-out: B1R Antagonism, rat [10 μM] % Inhibition
T2 construct: host or cells: CHO K1 cells (Chinese hamster ovary), stably transfected
T2 sequence (P97583 1-337): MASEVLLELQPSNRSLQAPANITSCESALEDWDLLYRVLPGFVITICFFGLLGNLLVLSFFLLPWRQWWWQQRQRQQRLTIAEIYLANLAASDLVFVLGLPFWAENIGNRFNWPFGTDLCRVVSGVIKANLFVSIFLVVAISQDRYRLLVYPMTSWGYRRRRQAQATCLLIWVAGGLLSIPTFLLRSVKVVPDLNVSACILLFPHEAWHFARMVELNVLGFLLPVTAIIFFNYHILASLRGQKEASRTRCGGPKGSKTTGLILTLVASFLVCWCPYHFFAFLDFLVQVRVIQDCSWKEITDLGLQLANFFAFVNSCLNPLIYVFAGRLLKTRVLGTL
In short: as §1

In the case of `COc1cc(C)c(S(=O)(=O)N2CCCCC2COCC(=O)NC(CN(C)C)c2ccccc2)c(C)c1` (stereo not shown) [Example 261, N-(2-(dimethylamino)-1-phenylethyl)-2-((1-(4-methoxy-2,6-dimethylphenylsulfonyl)piperidin-2-yl)methoxy)acetamide], the inhibition at 10 µM [1] is reported as 78.9% and the inhibition at 10 µM [2] is reported as 98.9%.
With `COc1cc(C)c(S(=O)(=O)N2CCCCC2COCC(=O)NC(CN2CCCC2)c2ccccc2)c(C)c1` (stereo not shown) [Example 262, 2-((1-(4-methoxy-2,6-dimethylphenylsulfonyl)piperidin-2-yl)methoxy)-N-(1-phenyl-2-(pyrrolidin-1-yl)ethyl)acetamide] the inhibition at 10 µM [1] was 81.8% and the inhibition at 10 µM [2] was 99.7%.
In the case of `COc1cc(C)c(S(=O)(=O)N2CCCCC2COCC(=O)NC(CN2CCN(C)CC2)c2ccccc2)c(C)c1` (stereo not shown) [Example 263, 2-((1-(4-methoxy-2,6-dimethylphenylsulfonyl)piperidin-2-yl)methoxy)-N-(2-(4-methylpiperazin-1-yl)-1-phenylethyl)acetamide], the inhibition at 10 µM [1] is reported as 100% and the inhibition at 10 µM [2] is reported as 97.8%.
Compound `O=C(COCC1Cc2ccccc2CN1S(=O)(=O)c1ccccc1)Nc1cccc(N2CCOCC2)c1` (stereo not shown) [Example 264, N-(3-morpholinophenyl)-2-((2-(phenylsulfonyl)-1,2,3,4-tetrahydroisoquinolin-3-yl)methoxy)acetamide] has an inhibition at 10 µM [1] of 103% and an inhibition at 10 µM [2] of 31.7%.
In the case of `O=C(COCC1Cc2ccccc2CN1S(=O)(=O)c1ccc(Cl)cc1Cl)Nc1cccc(N2CCOCC2)c1` (stereo not shown) [Example 265, 2-((2-(2,4-dichlorophenylsulfonyl)-1,2,3,4-tetrahydroisoquinolin-3-yl)methoxy)-N-(3-morpholinophenyl)acetamide], the inhibition at 10 µM [1] is reported as 100% and the inhibition at 10 µM [2] is reported as 51.3%.
In the case of `O=C(COCC1CCCCN1S(=O)(=O)c1ccc(Cl)c(Cl)c1)N1CCOC(CN2CCCCC2)C1` (stereo not shown) [Example 266, 2-((1-(3,4-dichlorophenylsulfonyl)piperidin-2-yl)methoxy)-1-(2-(piperidin-1-ylmethyl)morpholino)ethanone], the inhibition at 10 µM [1] is reported as 102% and the inhibition at 10 µM [2] is reported as 2.12%.
For `COc1cc(C)c(S(=O)(=O)N2CCCC2COCC(=O)N2CCC(N3CCN(C)CC3)CC2)c(C)c1` (stereo not shown) [Example 267, 2-((1-(4-methoxy-2,6-dimethylphenylsulfonyl)pyrrolidin-2-yl)methoxy)-1-(4-(4-methylpiperazin-1-yl)piperidin-1-yl)ethanone], the inhibition at 10 µM [1] was 104% and the inhibition at 10 µM [2] was 95.2%.
For `COc1cc(C)c(S(=O)(=O)N2CCCC2COCC(=O)N2CCC(CCN3CCCCC3)CC2)c(C)c1` (stereo not shown) [Example 268, 2-((1-(4-methoxy-2,6-dimethylphenylsulfonyl)pyrrolidin-2-yl)methoxy)-1-(4-(2-(piperidin-1-yl)ethyl)piperidin-1-yl)ethanone], the inhibition at 10 µM [1] was 104% and the inhibition at 10 µM [2] was 102%.
Work on `COc1cc(C)c(S(=O)(=O)N2CCCC2COCC(=O)N2CCN(CCn3c(C)ccc3C)CC2)c(C)c1` (stereo not shown) [Example 269, 1-(4-(2-(2,5-dimethyl-1H-pyrrol-1-yl)ethyl)piperazin-1-yl)-2-((1-(4-methoxy-2,6-dimethylphenylsulfonyl)pyrrolidin-2-yl)methoxy)ethanone] yielded an inhibition at 10 µM [1] of 104% and an inhibition at 10 µM [2] of 99%.
Compound `COc1cc(C)c(S(=O)(=O)N2CCCC2COCC(=O)N2CCN(CCN(C(C)C)C(C)C)CC2)c(C)c1` (stereo not shown) [Example 270, 1-(4-(2-(diisopropylamino)ethyl)piperazin-1-yl)-2-((1-(4-methoxy-2,6-dimethylphenylsulfonyl)pyrrolidin-2-yl)methoxy)ethanone] has an inhibition at 10 µM [1] of 104% and an inhibition at 10 µM [2] of 93.4%.
`COc1cc(C)c(S(=O)(=O)N2CCCC2COCC(=O)N2CCCC2c2ccccn2)c(C)c1` (stereo not shown) [Example 271, 2-((1-(4-methoxy-2,6-dimethylphenylsulfonyl)pyrrolidin-2-yl)methoxy)-1-(2-(pyridin-2-yl)pyrrolidin-1-yl)ethanone] was tested, and the inhibition at 10 µM [1] was 59.1% and the inhibition at 10 µM [2] was 85.9%.

From patent US8435978B2, “Substituted sulfonamide compounds” (Gruenenthal GmbH, priority 2006, dated 2013)
